Patent US20230340011A1 (Asteroid Therapeutics, priority 2022, published 2023)
pIC50: −log10 of the molar value.

The compounds below were run against SREBP-2 (Homo sapiens (Human), UniProt Q12772) (assay: In vitro assay SREBP-2: PathHunter U2OS SREBP-2 Nuclear Translocation Cell Line, U18666A-stimulated). Conditions: PathHunter U2OS SREBP-2 nuclear translocation cells, U18666A 10 μM, overnight (16 hours).
Format: cell-based

Structure (SMILES) | pIC50
COC(=O)N1CCN(C(=O)O[C@@H](C)[C@H]2CC[C@H]3[C@@H]4CC=C5C[C@@H](O)CC[C@]5(C)[C@H]4CC[C@]23C)CC1 [Example 237, 1-(1S)-1-[(1S,3aS,3bS,7S,9aR,9bS,11aS)-7-hydroxy-9a,11a-dimethyl-1H,2H,3H,3aH,3bH,4H,6H,7H,8H,9H,9aH,9bH,10H,11H,11aH-cyclopenta[a]phenanthren-1-yl]ethyl 4-methyl piperazine-1,4-dicarboxylate] | > 6.60
C[C@H](OC(=O)N(C)C)[C@H]1CC[C@H]2[C@@H]3CC=C4C[C@@H](O)CC[C@]4(C)[C@H]3CC[C@]12C [Example 461, (1S)-1-[(1S,3aS,3bS,7S,9aR,9bS,11aS)-7-hydroxy-9a,11a-dimethyl-1H,2H,3H,3aH,3bH,4H,6H,7H,8H,9H,9aH,9bH,10H,11H,11aH-cyclopenta[a]phenanthren-1-yl]ethyl N,N-dimethylcarbamate] | 6.00 to 6.60
Cc1ccncc1O[C@@H](C)[C@H]1CC[C@H]2[C@@H]3CC=C4C[C@@H](O)CC[C@]4(C)[C@H]3CC[C@]12C [Example 271, (3S,8S,9S,10R,13S,14S,17S)-10,13-dimethyl-17-((S)-1-((4-methylpyridin-3-yl)oxy)ethyl)-2,3,4,7,8,9,10,11,12,13,14,15,16,17-tetradecahydro-1H-cyclopenta[a]phenanthren-3-ol] | 6.00 to 6.60
CC[C@@H]1NC[C@@H]2CON(C(=O)CC[C@@H](C)[C@H]3CC[C@H]4[C@@H]5CC=C6C[C@@H](O)CC[C@]6(C)[C@H]5CC[C@]34C)[C@@H]21 [Example 48, (R)-1-((3aS,6S,6aS)-6-ethylhexahydro-1H-pyrrolo[3,4-c]isoxazol-1-yl)-4-((3S,8S,9S,10R,13R,14S,17R)-3-hydroxy-10,13-dimethyl-2,3,4,7,8,9,10,11,12,13,14,15,16,17-tetradecahydro-1H-cyclopenta[a]phenanthren-17-yl)pentan-1-one] | 6.00 to 6.60
C[C@H](CCC(=O)N1CCNCC1)[C@H]1CC[C@H]2[C@@H]3CC=C4C[C@@H](O)CC[C@]4(C)[C@H]3CC[C@]12C [Example 2, (R)-4-((3S,8S,9S,10R,13R,14S,17R)-3-hydroxy-10,13-dimethyl-2,3,4,7,8,9,10,11,12,13,14,15,16,17-tetradecahydro-1H-cyclopenta[a]phenanthren-17-yl)-1-(piperazin-1-yl) pentan-1-one] | 6.00 to 6.60
Cc1ccnc(OC[C@@H](C)[C@H]2CC[C@H]3[C@@H]4CC=C5C[C@@H](O)CC[C@]5(C)[C@H]4CC[C@]23C)c1 [Example 442, (1R,3aS,3bS,7S,9aR,9bS,11aS)-9a,11a-dimethyl-1-[(2S)-1-[(4-methylpyridin-2-yl)oxy]propan-2-yl]-1H,2H,3H,3aH,3bH,4H,6H,7H,8H,9H,9aH,9bH,10H,11H,11aH-cyclopenta[a]phenanthren-7-ol] | > 6.60
C[C@H](CCC(=O)N1CCC[C@H](Oc2ccncc2)C1)[C@H]1CC[C@H]2[C@@H]3CC=C4C[C@@H](O)CC[C@]4(C)[C@H]3CC[C@]12C [Example 520, (R)-4-((3S,8S,9S,10R,13R,14S,17R)-3-hydroxy-10,13-dimethyl-2,3,4,7,8,9,10,11,12,13,14,15,16,17-tetradecahydro-1H-cyclopenta[a]phenanthren-17-yl)-1-((S)-3-(pyridin-4-yloxy)piperidin-1-yl)pentan-1-one] | > 6.60
C[C@H](CCC(=O)N1CCCC(c2ccnnc2)C1)[C@H]1CC[C@H]2[C@@H]3CC=C4C[C@@H](O)CC[C@]4(C)[C@H]3CC[C@]12C (stereo partly drawn) [Example 345, (4R)-4-((3S,8S,9S,10R,13R,14S,17R)-3-hydroxy-10,13-dimethyl-2,3,4,7,8,9,10,11,12,13,14,15,16,17-tetradecahydro-1H-cyclopenta[a]phenanthren-17-yl)-1-(3-(pyridazin-4-yl)piperidin-1-yl)pentan-1-one] | 6.00 to 6.60
C[C@H](OCC(=O)N1CCC(C)(CO)CC1)[C@H]1CC[C@H]2[C@@H]3CC=C4C[C@@H](O)CC[C@]4(C)[C@H]3CC[C@]12C [Example 366, 2-((S)-1-((3S,8S,9S,10R,13S,14S,17S)-3-hydroxy-10,13-dimethyl-2,3,4,7,8,9,10,11,12,13,14,15,16,17-tetradecahydro-1H-cyclopenta[a]phenanthren-17-yl)ethoxy)-1-(4-(hydroxymethyl)-4-methylpiperidin-1-yl)ethan-1-one] | 6.00 to 6.60
CC(C)C1(O)CCN(C(=O)CC[C@@H](C)[C@H]2CC[C@H]3[C@@H]4CC=C5C[C@@H](O)CC[C@]5(C)[C@H]4CC[C@]23C)CC1 [Example 149, (R)-4-((3S,8S,9S,10R,13R,14S,17R)-3-hydroxy-10,13-dimethyl-2,3,4,7,8,9,10,11,12,13,14,15,16,17-tetradecahydro-1H-cyclopenta[a]phenanthren-17-yl)-1-(4-hydroxy-4-isopropylpiperidin-1-yl) pentan-1-one] | > 6.60
C[C@H](COc1ccc(CO)cn1)[C@H]1CC[C@H]2[C@@H]3CC=C4C[C@@H](O)CC[C@]4(C)[C@H]3CC[C@]12C [Example 445, (3S,8S,9S,10R,13S,14S,17R)-17-((S)-1-((5-(hydroxymethyl)pyridin-2-yl)oxy)propan-2-yl)-10,13-dimethyl-2,3,4,7,8,9,10,11,12,13,14,15,16,17-tetradecahydro-1H-cyclopenta[a]phenanthren-3-ol] | 6.00 to 6.60
COC(=O)NC[C@@H](C)[C@H]1CC[C@H]2[C@@H]3CC=C4C[C@@H](O)CC[C@]4(C)[C@H]3CC[C@]12C [Example 240, Methyl ((S)-2-((3S,8S,9S,10R,13S,14S,17R)-3-hydroxy-10,13-dimethyl-2,3,4,7,8,9,10,11,12,13,14,15,16,17-tetradecahydro-1H-cyclopenta[a]phenanthren-17-yl)propyl)carbamate] | 6.00 to 6.60
CCCCC1(O)CCN(C(=O)CC[C@@H](C)[C@H]2CC[C@H]3[C@@H]4CC=C5C[C@@H](O)CC[C@]5(C)[C@H]4CC[C@]23C)CC1 [Example 92, (R)-1-(4-butyl-4-hydroxypiperidin-1-yl)-4-((3S,8S,9S,10R,13R,14S,17R)-3-hydroxy-10,13-dimethyl-2,3,4,7,8,9,10,11,12,13,14,15,16,17-tetradecahydro-1H-cyclopenta[a]phenanthren-17-yl)pentan-1-one] | > 6.60
C[C@H](COc1cccc(CO)n1)[C@H]1CC[C@H]2[C@@H]3CC=C4C[C@@H](O)CC[C@]4(C)[C@H]3CC[C@]12C [Example 444, (3S,8S,9S,10R,13S,14S,17R)-17-((S)-1-((6-(hydroxymethyl)pyridin-2-yl)oxy)propan-2-yl)-10,13-dimethyl-2,3,4,7,8,9,10,11,12,13,14,15,16,17-tetradecahydro-1H-cyclopenta[a]phenanthren-3-ol] | > 6.60
CNC(=O)c1ncccc1O[C@@H](C)[C@H]1CC[C@H]2[C@@H]3CC=C4C[C@@H](O)CC[C@]4(C)[C@H]3CC[C@]12C [Example 267, 3-((S)-1-((3S,8S,9S,10R,13S,14S,17S)-3-hydroxy-10,13-dimethyl-2,3,4,7,8,9,10,11,12,13,14,15,16,17-tetradecahydro-1H-cyclopenta[a]phenanthren-17-yl)ethoxy)-N-methylpicolinamide] | 6.00 to 6.60
C[C@H](CCC(=O)N1CC[C@H](Nc2ccncn2)C1)[C@H]1CC[C@H]2[C@@H]3CC=C4C[C@@H](O)CC[C@]4(C)[C@H]3CC[C@]12C [Example 531, (R)-4-((3S,8S,9S,10R,13R,14S,17R)-3-hydroxy-10,13-dimethyl-2,3,4,7,8,9,10,11,12,13,14,15,16,17-tetradecahydro-1H-cyclopenta[a]phenanthren-17-yl)-1-((S)-3-(pyrimidin-4-ylamino)pyrrolidin-1-yl)pentan-1-one] | > 6.60
C[C@H](COc1cc(CO)ccn1)[C@H]1CC[C@H]2[C@@H]3CC=C4C[C@@H](O)CC[C@]4(C)[C@H]3CC[C@]12C [Example 446, (3S,8S,9S,10R,13S,14S,17R)-17-((S)-1-((4-(hydroxymethyl)pyridin-2-yl)oxy)propan-2-yl)-10,13-dimethyl-2,3,4,7,8,9,10,11,12,13,14,15,16,17-tetradecahydro-1H-cyclopenta[a]phenanthren-3-ol] | > 6.60
CNC(=O)c1ccnc(OC[C@@H](C)[C@H]2CC[C@H]3[C@@H]4CC=C5C[C@@H](O)CC[C@]5(C)[C@H]4CC[C@]23C)c1 [Example 450, 2-((S)-2-((3S,8S,9S,10R,13S,14S,17R)-3-hydroxy-10,13-dimethyl-2,3,4,7,8,9,10,11,12,13,14,15,16,17-tetradecahydro-1H-cyclopenta[a]phenanthren-17-yl)propoxy)-N-methylisonicotinamide] | > 6.60
CCC1(O)CCN(C(=O)CC[C@@H](C)[C@H]2CC[C@H]3[C@@H]4CC=C5C[C@@H](O)CC[C@]5(C)[C@H]4CC[C@]23C)CC1 [Example 129, (R)-1-(4-ethyl-4-hydroxypiperidin-1-yl)-4-((3S,8S,9S,10R,13R,14S,17R)-3-hydroxy-10,13-dimethyl-2,3,4,7,8,9,10,11,12,13,14,15,16,17-tetradecahydro-1H-cyclopenta[a]phenanthren-17-yl)pentan-1-one] | > 6.60
CNC(=O)c1cccc(OC[C@@H](C)[C@H]2CC[C@H]3[C@@H]4CC=C5C[C@@H](O)CC[C@]5(C)[C@H]4CC[C@]23C)n1 [Example 448, 6-((S)-2-((3S,8S,9S,10R,13S,14S,17R)-3-hydroxy-10,13-dimethyl-2,3,4,7,8,9,10,11,12,13,14,15,16,17-tetradecahydro-1H-cyclopenta[a]phenanthren-17-yl)propoxy)-N-methylpicolinamide] | 6.00 to 6.60
COC(=O)N1CCN(C(=O)NC[C@@H](C)[C@H]2CC[C@H]3[C@@H]4CC=C5C[C@@H](O)CC[C@]5(C)[C@H]4CC[C@]23C)CC1 [Example 467, Methyl 4-(((S)-2-((3S,8S,9S,10R,13S,14S,17R)-3-hydroxy-10,13-dimethyl-2,3,4,7,8,9,10,11,12,13,14,15,16,17-tetradecahydro-1H-cyclopenta[a]phenanthren-17-yl)propyl)carbamoyl)piperazine-1-carboxylate] | > 6.60
